Assay results taken from ChEMBL document CHEMBL1150746, “Native American food and medicinal plants, 8. Water-soluble constituents of Lomatium dissectum” (1988).

Tested on: Xanthomonas campestris
Assay: Antimicrobial activity against Xanthomonas campestris at 0.5 mg/disk
Type: functional

O=c1cc(-c2ccc(O)c(O)c2)oc2cc(O[C@@H]3O[C@H](CO)[C@@H](O)[C@H](O)[C@H]3O)cc(O)c12 [GALUTEOLIN]
inhibition zone (IZ): 3 mm
